Data as given in patent US20230085307A1, “PYRIDAZINONE COMPOUND AND HERBICIDE” (NISSAN CHEMICAL CORPORATION, priority 2019, published 2023).

Columns and labels:
blackgrass [1] = assay: Test Example 4: herbicidal effect by soil treatment (Table 19, symbol J); type: in vivo, blackgrass (Alopecurus myosuroides); conditions: amount of applied herbicide 320 g/ha
Outline: (§1)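 Scoring uses the grading scale of an earlier test, three weeks post-application. Treatment consists of spraying a diluted emulsion formulation across the surface of sterilized diluvial soil in which seeds are buried near 1.5 cm deep; boxes are kept in a greenhouse between 25° C. and 30° C.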

lambsquarters = assay: Test Example 5: herbicidal effect by foliage application, plastic box (Table 20, symbol O); type: in vivo, lambsquarters (Chenopodium album); conditions: foliage application
Outline: (§2)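 Post-emergence foliar test in sterilized diluvial soil. Compound applied as water-diluted emulsion at a predetermined rate to 14-day-old plants; evaluation at three weeks.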

Italian ryegrass = assay: Test Example 5: herbicidal effect by foliage application, plastic box (Table 20, symbol K); type: in vivo, Italian ryegrass (Lolium multiflorum); conditions: foliage application
Outline: as §2

wild oat [2] = assay: Test Example 5: herbicidal effect by foliage application, plastic box (Table 20, symbol I); type: in vivo, wild oat (Avena fatua); conditions: foliage application
Outline: as §2

blackgrass [3] = assay: Test Example 5: herbicidal effect by foliage application, plastic box (Table 20, symbol J); type: in vivo, blackgrass (Alopecurus myosuroides); conditions: foliage application
Outline: as §2

Chinese sprangletop = assay: Test Example 3: herbicidal effect by foliage application, Wagner pot (Table 18, symbol D); type: in vivo, chinese sprangletop (Leptochloa chinensis); conditions: for herbicidal effect on D: Chinese sprangletop: amount of applied herbicide 320 g/ha; for herbicidal effect on Chinese sprangletop (D): 320 g/ha
Outline: (§3)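 Plants were sown in alluvial soil held under 0.1–0.5 cm standing water and grown 14 days in a greenhouse at 25–30 °C. An emulsifiable formulation, water-diluted to the set dose, was then sprayed onto the foliage, and effects were scored three weeks later using previously defined criteria.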

southern crabgrass [4] = assay: Test Example 5: herbicidal effect by foliage application, plastic box (Table 20, symbol F); type: in vivo, southern crabgrass (Digitaria ciliaris); conditions: foliage application
Outline: as §2

Japanese bulrush = assay: Test Example 2: herbicidal activity, application during weed generation under submerged conditions (Table 17, symbol B); type: in vivo, Japanese bulrush (Schoenoplectus juncoides); conditions: AAH 320 g/ha; application during weed generation, submerged conditions
Outline: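 3-wk visual-criteria score after one water-surface dose. Emulsion formulation, water-diluted to set rate; applied at 1–2 leaf stage; alluvial soil, 4 cm standing water; seeds co-sown; greenhouse 25–30° C.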

rice flat sedge = assay: Test Example 3: herbicidal effect by foliage application, Wagner pot (Table 18, symbol E); type: in vivo, rice flat sedge (Cyperus iria); conditions: for herbicidal effect on E: rice flat sedge: amount of applied herbicide 320 g/ha; for herbicidal effect on rice flat sedge (E): 320 g/ha
Outline: as §3

barnyard grass = assay: Test Example 5: herbicidal effect by foliage application, plastic box (Table 20, symbol H); type: in vivo, barnyard grass (Echinochloa crus-galli); conditions: foliage application
Outline: as §2

southern crabgrass [5] = assay: Test Example 4: herbicidal effect by soil treatment (Table 19, symbol F); type: in vivo, southern crabgrass (Digitaria ciliaris); conditions: amount of applied herbicide 320 g/ha
Outline: as §1

green foxtail = assay: Test Example 4: herbicidal effect by soil treatment (Table 19, symbol G); type: in vivo, green foxtail (Setaria viridis); conditions: amount of applied herbicide 320 g/ha
Outline: as §1

redroot pigweed = assay: Test Example 4: herbicidal effect by soil treatment (Table 19, symbol N); type: in vivo, redroot pigweed (Amaranthus retroflexus); conditions: amount of applied herbicide 320 g/ha
Outline: as §1

wild oat [6] = assay: Test Example 4: herbicidal effect by soil treatment (Table 19, symbol I); type: in vivo, wild oat (Avena fatua); conditions: amount of applied herbicide 320 g/ha
Outline: as §1

velvetleaf = assay: Test Example 5: herbicidal effect by foliage application, plastic box (Table 20, symbol M); type: in vivo, velvetleaf (Abutilon theophrasti); conditions: foliage application
Outline: as §2

oval-leafed pondweed = assay: Test Example 1: herbicidal activity, application before weed generation under submerged conditions (Table 16, symbol C); type: in vivo, oval-leafed pondweed (Monochoria vaginalis); conditions: amount of applied herbicide 320 g/ha
Outline: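 Emulsion formulation, water-diluted to set dose, was put onto the flooded surface (4 cm depth, alluvial soil) the same day weeds were sown and 2.5-leaf rice transplanted. After 3 weeks at 25-30 °C under glass, each species was rated 0 (≤5% kill) to 5 (≥90% kill).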

[7] = 320 g/ha, three weeks after application
[8] = AAH 320 g/ha, evaluated three weeks after application

CCOC(=O)Oc1c(C)nn(C)c(=O)c1-c1c(-c2ccccc2OC)sc2cc(F)ccc12 [3-024]
J: blackgrass, herbicidal effect grade (blackgrass [1]): 1 (Herbicidal rate of 5% or more and less than 20%)
O: lambsquarters, herbicidal effect grade (lambsquarters; [7]): 4 (Herbicidal rate of 70% or more and less than 90%)
K: Italian ryegrass, herbicidal effect grade (Italian ryegrass; [7]): 4 (Herbicidal rate of 70% or more and less than 90%)
I: wild oat, herbicidal effect grade (wild oat [2]; [7]): 3 (Herbicidal rate of 40% or more and less than 70%)
J: blackgrass, herbicidal effect grade (blackgrass [3]; [7]): 4 (Herbicidal rate of 70% or more and less than 90%)
herbicidal effect on D: Chinese sprangletop (Chinese sprangletop): 3 (Herbicidal rate of 40% or more and less than 70%)
F: southern crabgrass, herbicidal effect grade (southern crabgrass [4]; [7]): 1 (Herbicidal rate of 5% or more and less than 20%)
herbicidal effect rating, B: Japanese bulrush (Japanese bulrush): 3 (Herbicidal rate of 40% or more and less than 70%)
herbicidal effect on E: rice flat sedge (rice flat sedge): 5 (Herbicidal rate of 90% or more (almost completely withered))
H: barnyard grass, herbicidal effect grade (barnyard grass; [7]): 5 (Herbicidal rate of 90% or more (almost completely withered))
F: southern crabgrass, herbicidal effect grade (southern crabgrass [5]): 3 (Herbicidal rate of 40% or more and less than 70%)
G: green foxtail, herbicidal effect grade (green foxtail): 3 (Herbicidal rate of 40% or more and less than 70%)
N: redroot pigweed, herbicidal effect grade (redroot pigweed): 5 (Herbicidal rate of 90% or more (almost completely withered))
I: wild oat, herbicidal effect grade (wild oat [6]): 3 (Herbicidal rate of 40% or more and less than 70%)
M: velvetleaf, herbicidal effect grade (velvetleaf; [7]): 5 (Herbicidal rate of 90% or more (almost completely withered))
Herbicidal effect, C: oval-leafed pondweed (oval-leafed pondweed): 0 (Herbicidal rate of 5% or less (almost no effect))

CCCCOc1ccc2c(-c3c(O)c(C)nn(C)c3=O)c(-c3ccccc3OC)sc2c1 [3-105]
J: blackgrass, herbicidal effect grade (blackgrass [1]): 0 (Herbicidal rate of 5% or less (almost no effect))
O: lambsquarters, herbicidal effect grade (lambsquarters; [7]): 5 (Herbicidal rate of 90% or more (almost completely withered))
K: Italian ryegrass, herbicidal effect grade (Italian ryegrass; [7]): 5 (Herbicidal rate of 90% or more (almost completely withered))
I: wild oat, herbicidal effect grade (wild oat [2]; [7]): 4 (Herbicidal rate of 70% or more and less than 90%)
J: blackgrass, herbicidal effect grade (blackgrass [3]; [7]): 5 (Herbicidal rate of 90% or more (almost completely withered))
herbicidal effect on Chinese sprangletop (D) (Chinese sprangletop): 5 (Herbicidal rate of 90% or more (almost completely withered))
F: southern crabgrass, herbicidal effect grade (southern crabgrass [4]; [7]): 5 (Herbicidal rate of 90% or more (almost completely withered))
herbicidal effect rating, B: Japanese bulrush (Japanese bulrush): 3 (Herbicidal rate of 40% or more and less than 70%)
herbicidal effect on rice flat sedge (E) (rice flat sedge): 4 (Herbicidal rate of 70% or more and less than 90%)
H: barnyard grass, herbicidal effect grade (barnyard grass; [7]): 4 (Herbicidal rate of 70% or more and less than 90%)
F: southern crabgrass, herbicidal effect grade (southern crabgrass [5]): 0 (Herbicidal rate of 5% or less (almost no effect))
G: green foxtail, herbicidal effect grade (green foxtail): 3 (Herbicidal rate of 40% or more and less than 70%)
N: redroot pigweed, herbicidal effect grade (redroot pigweed): 4 (Herbicidal rate of 70% or more and less than 90%)
I: wild oat, herbicidal effect grade (wild oat [6]): 0 (Herbicidal rate of 5% or less (almost no effect))
M: velvetleaf, herbicidal effect grade (velvetleaf; [7]): 5 (Herbicidal rate of 90% or more (almost completely withered))
Herbicidal effect, C: oval-leafed pondweed (oval-leafed pondweed): 5 (Herbicidal rate of 90% or more (almost completely withered))

COc1ccccc1-c1sc2cc(OCC3CC3)ccc2c1-c1c(O)c(C)nn(C)c1=O [3-129]
J: blackgrass, herbicidal effect grade (blackgrass [1]): 4 (Herbicidal rate of 70% or more and less than 90%)
O: lambsquarters, herbicidal effect grade (lambsquarters; [7]): 4 (Herbicidal rate of 70% or more and less than 90%)
K: Italian ryegrass, herbicidal effect grade (Italian ryegrass; [7]): 5 (Herbicidal rate of 90% or more (almost completely withered))
I: wild oat, herbicidal effect grade (wild oat [2]; [7]): 3 (Herbicidal rate of 40% or more and less than 70%)
J: blackgrass, herbicidal effect grade (blackgrass [3]; [7]): 5 (Herbicidal rate of 90% or more (almost completely withered))
herbicidal effect on Chinese sprangletop (D) (Chinese sprangletop): 4 (Herbicidal rate of 70% or more and less than 90%)
F: southern crabgrass, herbicidal effect grade (southern crabgrass [4]; [7]): 5 (Herbicidal rate of 90% or more (almost completely withered))
herbicidal effect rating, B: Japanese bulrush (Japanese bulrush): 3 (Herbicidal rate of 40% or more and less than 70%)
herbicidal effect on rice flat sedge (E) (rice flat sedge): 5 (Herbicidal rate of 90% or more (almost completely withered))
H: barnyard grass, herbicidal effect grade (barnyard grass; [7]): 4 (Herbicidal rate of 70% or more and less than 90%)
F: southern crabgrass, herbicidal effect grade (southern crabgrass [5]): 4 (Herbicidal rate of 70% or more and less than 90%)
G: green foxtail, herbicidal effect grade (green foxtail): 5 (Herbicidal rate of 90% or more (almost completely withered))
N: redroot pigweed, herbicidal effect grade (redroot pigweed): 5 (Herbicidal rate of 90% or more (almost completely withered))
I: wild oat, herbicidal effect grade (wild oat [6]): 1 (Herbicidal rate of 5% or more and less than 20%)
M: velvetleaf, herbicidal effect grade (velvetleaf; [7]): 4 (Herbicidal rate of 70% or more and less than 90%)
Herbicidal effect, C: oval-leafed pondweed (oval-leafed pondweed): 5 (Herbicidal rate of 90% or more (almost completely withered))

CCCC(=O)Oc1c(C)nn(C)c(=O)c1-c1c(-c2ccc(Cl)s2)sc2ccc(F)cc12 [2-391]
herbicidal effect, J: blackgrass (blackgrass [1]): 2 (Herbicidal rate of 20% or more and less than 40%)
O: lambsquarters, herbicidal effect (criteria 0-5) (lambsquarters; [8]): 4 (Herbicidal rate of 70% or more and less than 90%)
K: Italian ryegrass, herbicidal effect (criteria 0-5) (Italian ryegrass; [8]): 5 (Herbicidal rate of 90% or more (almost completely withered))
I: wild oat, herbicidal effect (criteria 0-5) (wild oat [2]; [8]): 3 (Herbicidal rate of 40% or more and less than 70%)
J: blackgrass, herbicidal effect (criteria 0-5) (blackgrass [3]; [8]): 3 (Herbicidal rate of 40% or more and less than 70%)
herbicidal effect on D: Chinese sprangletop (Chinese sprangletop): 4 (Herbicidal rate of 70% or more and less than 90%)
F: southern crabgrass, herbicidal effect (criteria 0-5) (southern crabgrass [4]; [8]): 5 (Herbicidal rate of 90% or more (almost completely withered))
herbicidal effect rating, B: Japanese bulrush (Japanese bulrush): 4 (Herbicidal rate of 70% or more and less than 90%)
herbicidal effect on E: rice flat sedge (rice flat sedge): 5 (Herbicidal rate of 90% or more (almost completely withered))
H: barnyard grass, herbicidal effect (criteria 0-5) (barnyard grass; [8]): 5 (Herbicidal rate of 90% or more (almost completely withered))
herbicidal effect, F: southern crabgrass (southern crabgrass [5]): 5 (Herbicidal rate of 90% or more (almost completely withered))
herbicidal effect, G: green foxtail (green foxtail): 4 (Herbicidal rate of 70% or more and less than 90%)
herbicidal effect, N: redroot pigweed (redroot pigweed): 5 (Herbicidal rate of 90% or more (almost completely withered))
herbicidal effect, I: wild oat (wild oat [6]): 0 (Herbicidal rate of 5% or less (almost no effect))
M: velvetleaf, herbicidal effect (criteria 0-5) (velvetleaf; [8]): 5 (Herbicidal rate of 90% or more (almost completely withered))
Herbicidal effect, C: oval-leafed pondweed (oval-leafed pondweed): 5 (Herbicidal rate of 90% or more (almost completely withered))

CCCC(=O)Oc1c(C)nn(C)c(=O)c1-c1c(-c2ccc(F)cc2)sc2cc(C)c(C)cc12 [5-089]
J: blackgrass, herbicidal effect grade (blackgrass [1]): 0 (Herbicidal rate of 5% or less (almost no effect))
herbicidal effect on lambsquarters (O) (lambsquarters; [7]): 0 (Herbicidal rate of 5% or less (almost no effect))
herbicidal effect on Italian ryegrass (K) (Italian ryegrass; [7]): 0 (Herbicidal rate of 5% or less (almost no effect))
herbicidal effect on wild oat (I) (wild oat [2]; [7]): 0 (Herbicidal rate of 5% or less (almost no effect))
herbicidal effect on blackgrass (J) (blackgrass [3]; [7]): 0 (Herbicidal rate of 5% or less (almost no effect))
herbicidal effect on Chinese sprangletop (D) (Chinese sprangletop): 3 (Herbicidal rate of 40% or more and less than 70%)
herbicidal effect on southern crabgrass (F) (southern crabgrass [4]; [7]): 0 (Herbicidal rate of 5% or less (almost no effect))
herbicidal effect rating, B: Japanese bulrush (Japanese bulrush): 0 (Herbicidal rate of 5% or less (almost no effect))
herbicidal effect on rice flat sedge (E) (rice flat sedge): 3 (Herbicidal rate of 40% or more and less than 70%)
herbicidal effect on barnyard grass (H) (barnyard grass; [7]): 0 (Herbicidal rate of 5% or less (almost no effect))
F: southern crabgrass, herbicidal effect grade (southern crabgrass [5]): 0 (Herbicidal rate of 5% or less (almost no effect))
G: green foxtail, herbicidal effect grade (green foxtail): 0 (Herbicidal rate of 5% or less (almost no effect))
N: redroot pigweed, herbicidal effect grade (redroot pigweed): 0 (Herbicidal rate of 5% or less (almost no effect))
I: wild oat, herbicidal effect grade (wild oat [6]): 0 (Herbicidal rate of 5% or less (almost no effect))
herbicidal effect on velvetleaf (M) (velvetleaf; [7]): 0 (Herbicidal rate of 5% or less (almost no effect))
Herbicidal effect, C: oval-leafed pondweed (oval-leafed pondweed): 0 (Herbicidal rate of 5% or less (almost no effect))
